Where “and” joins values, the source holds several entries; their conditions need not be identical. Identical values can stand only once.
System: 439559-082-T-J2-PDC spheroid viability
Test: Anticancer human tumor 439559-082-T-J2-PDC patient-derived colon adenocarcinoma cell line growth inhibition [POLQ]
Details: spheroids with HUVEC and MSC; for viability, T/C: stronger effect = lower value
Method in brief: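 Patient-derived tumour cells were co-cultured with HUVEC and mesenchymal stem cells as multicellular spheroids at 37 °C. They were treated with POLQ inhibitors (novobiocin, ART-558, RP6685) alone or combined with other agents. Top concentrations were at or near clinical Cmax (otherwise 10 microM; SN-38 at 1 microM), decreasing in half-log steps.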

[1] = curve of first compound, second compound 0.0316 µM
[2] = curve of first compound, second compound 0.1 µM
[3] = curve of first compound, second compound 0.316 µM
[4] = curve of first compound, second compound 1 µM
[5] = curve of first compound, second compound 3.16 µM
[6] = curve of first compound, second compound 10 µM
[7] = second compound 0.0316 µM, first compound 0.0316 µM
[8] = second compound 0.0316 µM, first compound 0.1 µM
[9] = second compound 0.1 µM, first compound 0.0316 µM
[10] = second compound 0.1 µM, first compound 0.1 µM
[11] = second compound 0.316 µM, first compound 0.0316 µM
[12] = second compound 0.316 µM, first compound 0.1 µM
[13] = second compound 1 µM, first compound 0.0316 µM
[14] = second compound 1 µM, first compound 0.1 µM
[15] = second compound 3.16 µM, first compound 0.0316 µM
[16] = second compound 3.16 µM, first compound 0.1 µM
[17] = second compound 10 µM, first compound 0.0316 µM
[18] = second compound 10 µM, first compound 0.1 µM
[19] = second compound 0.0316 µM, first compound 0.316 µM
[20] = second compound 0.0316 µM, first compound 1 µM
[21] = second compound 0.0316 µM, first compound 3.16 µM
[22] = second compound 0.0316 µM, first compound 10 µM
[23] = second compound 0.1 µM, first compound 0.316 µM
[24] = second compound 0.1 µM, first compound 1 µM
[25] = second compound 0.1 µM, first compound 3.16 µM
[26] = second compound 0.1 µM, first compound 10 µM
[27] = second compound 0.316 µM, first compound 0.316 µM
[28] = second compound 0.316 µM, first compound 1 µM
[29] = second compound 0.316 µM, first compound 3.16 µM
[30] = second compound 0.316 µM, first compound 10 µM
[31] = second compound 1 µM, first compound 0.316 µM
[32] = second compound 1 µM, first compound 1 µM
[33] = second compound 1 µM, first compound 3.16 µM
[34] = second compound 1 µM, first compound 10 µM
[35] = second compound 3.16 µM, first compound 0.316 µM
[36] = second compound 3.16 µM, first compound 1 µM
[37] = second compound 3.16 µM, first compound 3.16 µM
[38] = second compound 3.16 µM, first compound 10 µM
[39] = second compound 10 µM, first compound 0.316 µM
[40] = second compound 10 µM, first compound 1 µM
[41] = second compound 10 µM, first compound 3.16 µM
[42] = second compound 10 µM, first compound 10 µM
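Note: spheroids exposed to compounds for seven days before readout.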
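Throughout, for viability, T/C: 100% = DMSO vehicle control viability.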

SMILES: CC[C@@]1(O)C(=O)OCc2c1cc1n(c2=O)Cc2cc3c(CN(C)C)c(O)ccc3nc2-1 + Cc1cccc(N(C)C(=O)C2C(O)CCN2c2nc(C)cc(C(F)(F)F)c2C#N)c1
- IC50 [1]: > 100 nM
- IC50 [2]: > 100 nM
- IC50 [3]: > 100 nM
- IC50 [4]: > 100 nM
- IC50 [5]: > 100 nM
- IC50 [6]: > 100 nM
- viability, T/C (second compound 0.0316 µM, first compound 0.000316 µM): 94.1%
- viability, T/C (second compound 0.0316 µM, first compound 0.001 µM): 101%
- viability, T/C (second compound 0.0316 µM, first compound 0.00316 µM): 96%
- viability, T/C (second compound 0.0316 µM, first compound 0.01 µM): 97.2%
- viability, T/C [7]: 92.2%
- viability, T/C [8]: 85%
- viability, T/C (second compound 0.1 µM, first compound 0.000316 µM): 113%
- viability, T/C (second compound 0.1 µM, first compound 0.001 µM): 105%
- viability, T/C (second compound 0.1 µM, first compound 0.00316 µM): 93.7%
- viability, T/C (second compound 0.1 µM, first compound 0.01 µM): 103%
- viability, T/C [9]: 97.3%
- viability, T/C [10]: 79.1%
- viability, T/C (second compound 0.316 µM, first compound 0.000316 µM): 98.1%
- viability, T/C (second compound 0.316 µM, first compound 0.001 µM): 112%
- viability, T/C (second compound 0.316 µM, first compound 0.00316 µM): 94.9%
- viability, T/C (second compound 0.316 µM, first compound 0.01 µM): 89.8%
- viability, T/C [11]: 84.9%
- viability, T/C [12]: 83.4%
- viability, T/C (second compound 1 µM, first compound 0.000316 µM): 104%
- viability, T/C (second compound 1 µM, first compound 0.001 µM): 96.5%
- viability, T/C (second compound 1 µM, first compound 0.00316 µM): 93.1%
- viability, T/C (second compound 1 µM, first compound 0.01 µM): 93%
- viability, T/C [13]: 90.3%
- viability, T/C [14]: 80.9%
- viability, T/C (second compound 3.16 µM, first compound 0.000316 µM): 96.2%
- viability, T/C (second compound 3.16 µM, first compound 0.001 µM): 101%
- viability, T/C (second compound 3.16 µM, first compound 0.00316 µM): 98.9%
- viability, T/C (second compound 3.16 µM, first compound 0.01 µM): 93.5%
- viability, T/C [15]: 89.9%
- viability, T/C [16]: 76.5%
- viability, T/C (second compound 10 µM, first compound 0.000316 µM): 93.2%
- viability, T/C (second compound 10 µM, first compound 0.001 µM): 89.4%
- viability, T/C (second compound 10 µM, first compound 0.00316 µM): 92.8%
- viability, T/C (second compound 10 µM, first compound 0.01 µM): 91.6%
- viability, T/C [17]: 90.3%
- viability, T/C [18]: 75%

SMILES: C=CC(=O)N1CCN(c2nc(=O)n(-c3c(C)ccnc3C(C)C)c3nc(-c4c(O)cccc4F)c(F)cc23)C(C)C1 (stereo not drawn) + Cc1cccc(N(C)C(=O)C2C(O)CCN2c2nc(C)cc(C(F)(F)F)c2C#N)c1
- IC50 [1]: > 10000 nM
- IC50 [2]: > 10000 nM
- IC50 [3]: > 10000 nM
- IC50 [4]: > 10000 nM
- IC50 [5]: > 10000 nM
- IC50 [6]: > 10000 nM
- viability, T/C [7]: 101%
- viability, T/C [8]: 93.8%
- viability, T/C [19]: 95.7%
- viability, T/C [20]: 108%
- viability, T/C [21]: 103%
- viability, T/C [22]: 94.9%
- viability, T/C [9]: 101%
- viability, T/C [10]: 103%
- viability, T/C [23]: 97%
- viability, T/C [24]: 99.4%
- viability, T/C [25]: 107%
- viability, T/C [26]: 100%
- viability, T/C [11]: 92.7%
- viability, T/C [12]: 96.9%
- viability, T/C [27]: 98%
- viability, T/C [28]: 94.9%
- viability, T/C [29]: 96%
- viability, T/C [30]: 96.5%
- viability, T/C [13]: 107%
- viability, T/C [14]: 97.8%
- viability, T/C [31]: 96.5%
- viability, T/C [32]: 96.5%
- viability, T/C [33]: 96%
- viability, T/C [34]: 98%
- viability, T/C [15]: 101%
- viability, T/C [16]: 96.6%
- viability, T/C [35]: 92.4%
- viability, T/C [36]: 95.6%
- viability, T/C [37]: 96.9%
- viability, T/C [38]: 101%
- viability, T/C [17]: 98.2%
- viability, T/C [18]: 93.8%
- viability, T/C [39]: 88%
- viability, T/C [40]: 83.6%
- viability, T/C [41]: 97.1%
- viability, T/C [42]: 90.2%

SMILES: Nc1ccn(C2OC(CO)C(O)C2(F)F)c(=O)n1 (stereo not drawn) + Nc1ccc(C#CCN(C(=O)Cc2ncc(C(F)(F)F)cc2C(F)(F)F)c2ccc(F)cc2)nn1
- IC50 [1]: 393 nM
- IC50 [2]: 583 nM
- IC50 [3]: 464 nM
- IC50 [4]: 519 nM
- IC50 [5]: 615 nM
- IC50 [6]: 1920 nM
- viability, T/C [7]: 81.7%
- viability, T/C [8]: 88.2%
- viability, T/C [19]: 54.1%
- viability, T/C [20]: 35.6%
- viability, T/C [21]: 32.7%
- viability, T/C [22]: 28.2%
- viability, T/C [9]: 89.5%
- viability, T/C [10]: 90.7%
- viability, T/C [23]: 63%
- viability, T/C [24]: 38.9%
- viability, T/C [25]: 33.9%
- viability, T/C [26]: 28.8%
- viability, T/C [11]: 91.1%
- viability, T/C [12]: 90.2%
- viability, T/C [27]: 57.4%
- viability, T/C [28]: 35.5%
- viability, T/C [29]: 33.2%
- viability, T/C [30]: 26.1%
- viability, T/C [13]: 86.4%
- viability, T/C [14]: 85.6%
- viability, T/C [31]: 59.1%
- viability, T/C [32]: 37.9%
- viability, T/C [33]: 32.7%
- viability, T/C [34]: 28.8%
- viability, T/C [15]: 86.3%
- viability, T/C [16]: 79.3%
- viability, T/C [35]: 62.9%
- viability, T/C [36]: 39.1%
- viability, T/C [37]: 36.1%
- viability, T/C [38]: 27.1%
- viability, T/C [17]: 90.1%
- viability, T/C [18]: 80%
- viability, T/C [39]: 81.9%
- viability, T/C [40]: 63.4%
- viability, T/C [41]: 39.3%
- viability, T/C [42]: 35.9%

SMILES: O=C(Nc1ccc(O)c(NS(=O)(=O)c2ccc(F)cc2)c1)c1ccc(-c2ccccc2)cc1
- viability, T/C (compound 0.0316 µM): 91% and 95.6% and 94.9%
- viability, T/C (compound 0.1 µM): 95.3% and 90.8% and 94.3%
- viability, T/C (compound 0.316 µM): 87.2% and 100% and 98.6%
- viability, T/C (compound 1 µM): 97.2% and 96.6% and 96.2%
- viability, T/C (compound 3.16 µM): 112% and 107% and 106%
- viability, T/C (compound 10 µM): 105% and 102% and 101%
- IC50 (curve of compound): > 10000 nM

— PubChem BioAssay AID1963841 (Molecular Pharmacology Branch, DTP, NCI, 2024)
